Experiment: xn = mol fraction of the nth substance listed
Conditions: 100.7 kPa, Liquid; for viscosity: Falling or rolling sphere viscometry; for speed of sound: Frequency=3 MHz, Sing-around technique in a fixed-path interferometer; for mass density: Vibrating tube method

CCCC[n+]1ccn(C)c1.O=S(=O)([N-]S(=O)(=O)C(F)(F)F)C(F)(F)F + CCCCOC(C)=O
Conditions	mass density [kg/m3]	speed of sound [m/s]	viscosity [mPa·s]
298.15 K, x1 = 0.0252	–	1187.2	–
298.15 K, x1 = 0.0521	–	1185.1	–
298.15 K, x1 = 0.0754	–	1183.4	–
298.15 K, x1 = 0.11	1002.7	1182	1.65
298.15 K, x1 = 0.2089	1091.17	1182.3	3.16
298.15 K, x1 = 0.2993	1157.05	1184.9	5.48
298.15 K, x1 = 0.393	1214.08	1189	8.7
298.15 K, x1 = 0.4847	1261.35	1194	13
298.15 K, x1 = 0.5739	1300.9	1199.2	18.01
298.15 K, x1 = 0.687	1344.53	1206.6	25.24
298.15 K, x1 = 0.7791	1375.41	1212.7	31.73
298.15 K, x1 = 0.9056	1412.56	1221.6	41.39
298.15 K, x1 = 1	1436.82	1227.8	50.04
303.15 K, x1 = 0.0252	–	1167.5	–
303.15 K, x1 = 0.0521	–	1165.2	–
303.15 K, x1 = 0.0754	–	1164.2	–
303.15 K, x1 = 0.11	997.7	1163.8	1.32
303.15 K, x1 = 0.2089	1086.13	1165.8	2.47
303.15 K, x1 = 0.2993	1152.05	1169.6	4.19
303.15 K, x1 = 0.393	1209.12	1174.7	6.7
303.15 K, x1 = 0.4847	1256.55	1180.5	10
303.15 K, x1 = 0.5739	1296	1186.3	13.81
303.15 K, x1 = 0.687	1339.68	1194.3	19.35
303.15 K, x1 = 0.7791	1370.57	1201.8	25.04
303.15 K, x1 = 0.9056	1407.82	1211.6	33.3
303.15 K, x1 = 1	1431.98	1217.5	40.72
308.15 K, x1 = 0.0252	–	1147.2	–
308.15 K, x1 = 0.0521	–	1146.7	–
308.15 K, x1 = 0.0754	–	1146.3	–
308.15 K, x1 = 0.11	992.65	1145.8	1.08
308.15 K, x1 = 0.2089	1081.08	1149.4	2
308.15 K, x1 = 0.2993	1147.06	1154.5	3.3
308.15 K, x1 = 0.393	1204.12	1160.6	5.35
308.15 K, x1 = 0.4847	1251.44	1167.2	7.85
308.15 K, x1 = 0.5739	1291.12	1173.6	10.8
308.15 K, x1 = 0.687	1335.03	1182.2	15.26
308.15 K, x1 = 0.7791	1365.95	1189.1	20
308.15 K, x1 = 0.9056	1403.1	1199.2	27.56
308.15 K, x1 = 1	1427.16	1205.2	33.73
313.15 K, x1 = 0.0252	–	1128.5	–
313.15 K, x1 = 0.0521	–	1127	–
313.15 K, x1 = 0.0754	–	1127.2	–
313.15 K, x1 = 0.11	987.68	1127.8	0.96
313.15 K, x1 = 0.2089	1076.25	1133.2	1.72
313.15 K, x1 = 0.2993	1142.16	1139.5	2.81
313.15 K, x1 = 0.393	1199.24	1146.2	4.65
313.15 K, x1 = 0.4847	1246.74	1153.9	6.64
313.15 K, x1 = 0.5739	1286.33	1161	8.59
313.15 K, x1 = 0.687	1330.2	1170.2	12.16
313.15 K, x1 = 0.7791	1361.33	1178.5	15.96
313.15 K, x1 = 0.9056	1398.49	1188.4	22.61
313.15 K, x1 = 1	1422.37	1194.4	28.28
318.15 K, x1 = 0.0252	–	1108.2	–
318.15 K, x1 = 0.0521	–	1109.2	–
318.15 K, x1 = 0.0754	–	1109.6	–
318.15 K, x1 = 0.11	982.52	1110	0.8
318.15 K, x1 = 0.2089	1071.24	1117.1	1.49
318.15 K, x1 = 0.2993	1137.09	1124.6	2.35
318.15 K, x1 = 0.393	1194.31	1132	3.96
318.15 K, x1 = 0.4847	1241.85	1140.8	5.5
318.15 K, x1 = 0.5739	1281.71	1148.4	6.92
318.15 K, x1 = 0.687	1325.49	1159.3	9.96
318.15 K, x1 = 0.7791	1356.79	1168	13.17
318.15 K, x1 = 0.9056	1393.84	1178.5	18.87
318.15 K, x1 = 1	1417.6	1184.5	24.01
323.15 K, x1 = 0.0252	–	1089.6	–
323.15 K, x1 = 0.0521	–	1090.2	–
323.15 K, x1 = 0.0754	–	1091.3	–
323.15 K, x1 = 0.11	977.62	1092.3	0.83
323.15 K, x1 = 0.2089	1066.34	1101.2	1.37
323.15 K, x1 = 0.2993	1132.21	1109.9	2
323.15 K, x1 = 0.393	1189.38	1118.7	2.93
323.15 K, x1 = 0.4847	1236.98	1127.9	4.14
323.15 K, x1 = 0.5739	1276.92	1136	5.48
323.15 K, x1 = 0.687	1320.8	1147.5	8.24
323.15 K, x1 = 0.7791	1352.11	1155.7	10.74
323.15 K, x1 = 0.9056	1389.18	1166.3	15.82
323.15 K, x1 = 1	1412.86	1171.3	20.32

From the NIST ThermoML archive (doi:10.1016/j.jct.2015.09.022)
